Measured values published in patent US20260325561A1, “4'-SUBSTITUTED NUCLEOSIDES AND NUCLEOTIDES AS ANTIVIRAL AGENTS” (THE SCRIPPS RESEARCH INSTITUTE, priority 2023, published 2026).

Assays:
in vitro [1] = conditions: human, hepg2 cells
RSV A2 = assay: microbe, parasite or virus in culture; type: cell-based; conditions: human respiratory syncytial virus, HEp-2, 72 h, read-out: RSV A2 / Hep2 EC50
DENV-2 = assay: microbe, parasite or virus in culture; type: cell-based, DENV-2 16681; conditions: Dengue virus, DENV2, HepG2, 24 h, read-out: DENV-2 / HepG2 EC50
SARS-CoV-2 = assay: microbe, parasite or virus in culture; type: cell-based, SARS-CoV-2 strain USA-WA1/2020; conditions: Severe acute respiratory syndrome coronavirus 2, HeLa-ACE2, 24 h, read-out: SARS-CoV-2 / HeLa-ACE2 EC50
HRV 14 = assay: microbe, parasite or virus in culture; type: cell-based, Human Rhinovirus 14 strain 1059; conditions: Rhinovirus B, H1-HeLa, 48 h, read-out: HRV / H1 HeLa B 14 EC50
in vitro [2] = conditions: human, hep2 cells
in vitro [3] = conditions: human, hela-ace2 cells
in vitro [4] = conditions: human, h1 hela cells

| SMILES | CC50 at 72 h (in vitro [1]) [µM] | EC50 (RSV A2) [µM] | EC50 (DENV-2) [µM] | EC50 (SARS-CoV-2) [µM] | EC50 (HRV 14) [µM] | CC50 (in vitro [2]) [µM] | CC50 at 24 h (in vitro [3]) [µM] | CC50 (in vitro [4]) [µM] |
| --- | --- | --- | --- | --- | --- | --- | --- | --- |
| CNc1nc(N)nc2c1ncn2[C@@H]1O[C@](F)(COP(=O)(N[C@@H](C)C(=O)OC(C)C)Oc2ccccc2)[C@@H](O)[C@]1(F)Cl (single isomer, unassigned) [Example 58] | > 99 | > 10 | 0.1 to 1 | > 10 | 0.1 to 1 | > 99 | > 99 | > 99 |
| CNc1nc(N)nc2c1ncn2[C@@H]1O[C@](F)(COP(=O)(N[C@@H](C)C(=O)OC(C)C)Oc2ccccc2)[C@@H](O)[C@]1(F)Cl (single isomer, unassigned) [Example 59] | > 99 | > 10 | 1 to 10 | > 10 | 1 to 10 | > 99 | > 99 | > 99 |
| CO[C@]1(CO)O[C@@H](c2ccc3c(N)ncnn23)[C@](C)(O)[C@@H]1O [Example 3, (2R,3S,4R,5S)-5-(4-aminopyrrolo[2,1-f][1,2,4]triazin-7-yl)-2-(hydroxymethyl)-2-methoxy-4-methyltetrahydrofuran-3,4-diol] | > 99 | > 10 | > 10 | > 10 | > 10 | > 99 | > 99 | > 99 |
| [N-]=[N+]=N[C@]1(CO)C[C@@H](O)[C@H](n2ccc3c(N)ncnc32)O1 [Example 8, (2R,3R,5R)-2-(4-amino-7H-pyrrolo[2,3-d]pyrimidin-7-yl)-5-azido-5-(hydroxymethyl)tetrahydrofuran-3-ol] | > 99 | > 10 | > 10 | > 10 | > 10 | > 99 | > 99 | > 99 |
| C[C@]1(O)[C@H](c2ccc3c(N)ncnn23)O[C@@](CO)(N=[N+]=[N-])[C@H]1O [Example 9, (2R,3S,4R,5S)-5-(4-aminopyrrolo[2,1-f][1,2,4]triazin-7-yl)-2-azido-2-(hydroxymethyl)-4-methyltetrahydrofuran-3,4-diol] | > 99 | > 10 | > 10 | > 10 | > 10 | > 99 | > 99 | > 99 |
| Nc1ncnc2c1ccn2[C@@H]1O[C@](F)(CO)C[C@H]1O [Example 11, (2R,3R,5R)-2-(4-amino-7H-pyrrolo[2,3-d]pyrimidin-7-yl)-5-fluoro-5-(hydroxymethyl)tetrahydrofuran-3-ol] | 10 to 99 | > 10 | > 10 | > 10 | > 10 | > 99 | > 99 | 10 to 99 |
| Nc1ncnc2c1ccn2[C@@H]1O[C@@](F)(CO)C[C@H]1O [Example 12, (2R,3R,5S)-2-(4-amino-7H-pyrrolo[2,3-d]pyrimidin-7-yl)-5-fluoro-5-(hydroxymethyl)tetrahydrofuran-3-ol] | > 99 | > 10 | > 10 | > 10 | > 10 | > 99 | > 99 | 10 to 99 |
| CSc1nc(N)nc2c1ncn2[C@@H]1O[C@](F)(CO)[C@@H](O)[C@H]1O [Example 28] | 1 to 10 | 0.1 to 1 | 0.1 to 1 | > 10 | > 10 | 1 to 10 | 1 to 10 | 1 to 10 |
| N#Cc1cn([C@@H]2O[C@](F)(CO)[C@@H](O)[C@H]2O)c2nc[nH]c(=O)c12 [Example 37, 7-((2R,3R,4S,5S)-5-fluoro-3,4-dihydroxy-5-(hydroxymethyl)tetrahydrofuran-2-yl)-4-oxo-4,7-dihydro-3H-pyrrolo[2,3-d]pyrimidine-5-carbonitrile] | > 99 | > 10 | > 10 | > 10 | > 10 | > 99 | > 99 | > 99 |
| COc1ncnc2c1c(C(N)=O)cn2[C@@H]1O[C@](F)(CO)[C@@H](O)[C@H]1O [Example 38, 7-((2R,3R,4S,5S)-5-fluoro-3,4-dihydroxy-5-(hydroxymethyl)tetrahydrofuran-2-yl)-4-methoxy-7H-pyrrolo[2,3-d]pyrimidine-5-carboxamide] | 1 to 10 | > 10 | 1 to 10 | > 10 | > 10 | 10 to 99 | < 1 | 10 to 99 |
| COc1ncnc2c1ccn2[C@@H]1O[C@](F)(CO)C[C@H]1O [Example 39, (2R,3R,5R)-5-fluoro-5-(hydroxymethyl)-2-(4-methoxy-7H-pyrrolo[2,3-d]pyrimidin-7-yl)tetrahydrofuran-3-ol] | > 99 | > 10 | > 10 | > 10 | > 10 | > 99 | > 99 | > 99 |
| Nc1ncnc2c1c(C(F)(F)F)cn2[C@@H]1O[C@](F)(CO)[C@@H](O)[C@H]1O [Example 42, (2S,3S,4R,5R)-5-(4-amino-5-(trifluoromethyl)-7H-pyrrolo[2,3-d]pyrimidin-7-yl)-2-fluoro-2-(hydroxymethyl)tetrahydrofuran-3,4-diol] | < 1 | – | < 0.1 | – | – | – | – | – |
| CC(C)C(=O)OC[C@@]1(F)O[C@@H](n2ccc3c(N)ncnc32)[C@H](O)[C@@H]1O [Example 46, ((2S,3S,4R,5R)-5-(4-amino-7H-pyrrolo[2,3-d]pyrimidin-7-yl)-2-fluoro-3,4-dihydroxytetrahydrofuran-2-yl)methyl isobutyrate] | 1 to 10 | 0.1 to 1 | < 0.1 | 0.1 to 1 | 0.1 to 1 | 10 to 99 | 1 to 10 | 10 to 99 |
| CC(C)C(=O)OC[C@@]1(F)O[C@@H](n2ccc3c(N)ncnc32)[C@H](OC(=O)C(C)C)[C@@H]1OC(=O)C(C)C [Example 47, (2S,3S,4R,5R)-5-(4-amino-7H-pyrrolo[2,3-d]pyrimidin-7-yl)-2-fluoro-2-((isobutyryloxy)methyl)tetrahydrofuran-3,4-diyl bis(2-methylpropanoate)] | 1 to 10 | < 0.1 | < 0.1 | 1 to 10 | 1 to 10 | 1 to 10 | 10 to 99 | 10 to 99 |
| N#C[C@@]1(c2cnc3c(N)ncnn23)O[C@](F)(CO)[C@@H](O)[C@H]1O [Example 51, (2R,3R,4S,5S)-2-(4-aminoimidazo[2,1-f][1,2,4]triazin-7-yl)-5-fluoro-3,4-dihydroxy-5-(hydroxymethyl)tetrahydrofuran-2-carbonitrile] | > 99 | > 10 | > 10 | > 10 | > 10 | > 99 | > 99 | > 99 |
| Nc1ncnc2c1cnn2[C@@H]1O[C@](F)(CO)[C@@H](O)[C@H]1O [Example 52, (2S,3S,4R,5R)-5-(4-amino-1H-pyrazolo[3,4-d]pyrimidin-1-yl)-2-fluoro-2-(hydroxymethyl)tetrahydrofuran-3,4-diol] | < 1 | > 10 | 1 to 10 | 1 to 10 | 1 to 10 | 1 to 10 | 1 to 10 | 1 to 10 |
| Cc1ncnc2c1ccn2[C@@H]1O[C@](F)(CO)[C@@H](O)[C@H]1O [Example 53, (2S,3S,4R,5R)-2-fluoro-2-(hydroxymethyl)-5-(4-methyl-7H-pyrrolo[2,3-d]pyrimidin-7-yl)tetrahydrofuran-3,4-diol] | 10 to 99 | > 10 | 1 to 10 | – | > 10 | > 99 | – | > 99 |
| OC[C@@]1(F)O[C@@H](n2ccc3c(C4CC4)ncnc32)[C@H](O)[C@@H]1O [Example 54, (2S,3S,4R,5R)-5-(4-cyclopropyl-7H-pyrrolo[2,3-d]pyrimidin-7-yl)-2-fluoro-2-(hydroxymethyl)tetrahydrofuran-3,4-diol] | > 99 | > 10 | > 10 | – | > 10 | > 99 | – | > 99 |
| Nc1ncnc2c1c(-c1nc3ccccc3s1)cn2[C@@H]1O[C@](F)(CO)[C@@H](O)C1(F)F [Example 55, (2S,3R,5R)-5-(4-amino-5-(benzo[d]thiazol-2-yl)-7H-pyrrolo[2,3-d]pyrimidin-7-yl)-2,4,4-trifluoro-2-(hydroxymethyl)tetrahydrofuran-3-ol] | – | – | – | < 0.1 | – | – | 1 to 10 | – |
| CC(C)OC(=O)[C@H](C)NP(=O)(OC[C@@]1(F)O[C@@H](n2cnc3c(=O)[nH]c(N)nc32)C(F)(F)[C@@H]1O)Oc1ccccc1 (stereo partly drawn) [Example 61, isopropyl ((((2S,3R,5R)-5-(2-amino-6-oxo-1,6-dihydro-9H-purin-9-yl)-2,4,4-trifluoro-3-hydroxytetrahydrofuran-2-yl)methoxy)(phenoxy)phosphoryl)-L-alaninate] | > 99 | – | > 10 | – | – | – | – | – |
